The results in this text go back to patent US8367625B2, “Antibacterial aminoglycoside analogs” (Achaogen, Inc., priority 2008, dated 2013).

A word on the MIC: it is the smallest concentration in the dilution series that meets the test's criterion for growth inhibition. Higher therefore signals a less susceptible organism.

The test system of experiment [1] is E. coli ATCC 25922 (AECO001). Description: MIC assay, CLSI broth microdilution, AECO001. The class given is cell-based. To be noted: Escherichia coli; AECO001 is ATCC25922; Mueller Hinton Broth, 35 C, 20 hours. The method, then:
(§1) Minimum inhibitory concentrations (MIC) were determined by reference Clinical and Laboratory Standards Institute (CLSI) broth microdilution methods per M7-A7 [2006]. Quality control ranges utilizing E. coli ATCC 25922, P. aeruginosa ATCC 27853 and S. aureus ATCC 29213, and interpretive criteria for comparator agents were as published in CLSI M100-S17 [2007]. Briefly, serial two-fold dilutions of the test compounds were prepared at 2× concentration in Mueller Hinton Broth. The compound dilutions were mixed in 96-well assay plates in a 1:1 ratio with bacterial inoculum. The inoculum was prepared by suspension of a colony from an agar plate that was prepared the previous day. Bacteria were suspended in sterile saline and added to each assay plate to obtain a final concentration of 5×10^5 CFU/mL. The plates were incubated at 35 C. for 20 hours in ambient air.
Background: Broth dilution looks for growth in wells or tubes with falling amounts of substance.

Experiment [2] concerns P. aeruginosa ATCC 27853 (APAE001). The experiment is described as follows: MIC assay, CLSI broth microdilution, APAE001. Type of experiment: cell-based. The conditions noted are these: Pseudomonas aeruginosa; APAE001 is ATCC27853; Mueller Hinton Broth, 35 C, 20 hours. The method, then:
as §1

Converted amounts (≈) assume the structure as drawn. Some results are limits rather than exact numbers.

Consider `NCC[C@H](O)C(=O)N[C@@H]1C[C@H](N)[C@@H](O[C@H]2O[C@H](CNCCO)C=C[C@H]2N)[C@H](O[C@@H]2O[C@H](CO)[C@@H](O[C@H]3O[C@@H](CN)[C@@H](O)[C@H](O)[C@H]3N)[C@H]2O)[C@H]1O` [1/20], for which the MIC in experiment [1] is no more than 1 µg/mL; in experiment [2] it was 1 to 16 µg/mL (≈ 1.38 to 22 µM).
